The term IC50 denotes the concentration that inhibits the measured activity by half.

Like-named read-outs stand apart in the source and are kept apart here.

This assay deals with IL-1β secretion in THP-1 cells (NLRP3). Kind of assay: IL-1β secretion assay in PMA-differentiated THP-1 cells stimulated with LPS and nigericin (ELISA readout). To be noted: Homo sapiens, IL-1β ELISA. The format is cell-based. (In general: In an ELISA, binding on a coated surface is turned into a signal by an enzyme label.)

As to `O=C(Cn1nc(OC2CC3(CCC3)C2)c2cc(Br)ccc2c1=O)Nc1ncc(F)cn1` [Example 40, 2-(6-bromo-1-oxo-4-spiro[3.3]heptan-2-yloxyphthalazin-2-yl)-N-(5-fluoropyrimidin-2-yl)acetamide], the concentration for half-maximal inhibition (IC50) was less than 1000 nM (THP-1, Table 3, LPS 25 ng/mL + nigericin, read-out: Activity (IC50 class)) and 17 nM (THP-1, Table 4, LPS 25 ng/mL + nigericin, read-out: Activity (IC50)).
